Experimental data as given in patent publication US20250197387A1, “BCL-XL DEGRADERS AND USES THEREOF” (Kymera Therapeutics, Inc., priority 2021, published 2025).

Experiments:
Type in all cases: cell-based
[1] = test system: MOLT-4 cells; experiment: CTG (CellTiter-Glo) cell viability assay, MOLT-4; settings: Homo sapiens, MOLT-4, 72 h, 3 day incubation, read-out: CTG Cell Viability Assay - MOLT-4 3 day: Average external-IC50
How it was run: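 Luminescence from CellTiter-Glo, read after 3 days of compound exposure at 37 °C, gave viability; IC50 values came from three-parameter logistic curves. Cells were plated at 10,000 per well and dosed over nine 1:3 steps topping at 10 μM.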

[2] = target: T1, BCL-XL (Homo sapiens, UniProt Q07817); experiment: BCL-XL degradation assay, western blot in MOLT-4 cells, 16 h; settings: western blot, MOLT-4 cells, 16 h; for Dmax: read-out: Bcl-xL WB in MOLT-4 degradation 16 h: Average Dmax %; for DC50: read-out: Bcl-xL WB in MOLT-4 degradation 16 h: Mean external-Abs DC50
T1 construct: endogenous in cells; host or cells: MOLT-4
How it was run: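 MOLT-4 cells treated with compounds at 0.02-10 μM final for 16 hr at 37° C; lysates analysed by western blot with anti-BCL-xL, beta-actin and GAPDH loading controls, infrared imaging and densitometry; DC50 and Dmax % reported as letter codes.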

[3] = target: T1, BCL-XL; experiment: Bcl-xL ELISA degradation in MOLT-4 cells, 6 h; settings: for DC50: read-out: Bcl-xL ELISA in MOLT-4 degradation 6 h: Mean external-Abs DC50
Experimental: The letter codes for BCL-XL DC50 include: A (<0.01 μM); B (0.01-0.1 μM); C (>[…]); D (>0.5-1.0 μM); and E (>1.0 μM). The letter codes for Dmax % include A (>75%); B (50 to 75%); C (<50%).

T1 sequence (Q07817 whole entry): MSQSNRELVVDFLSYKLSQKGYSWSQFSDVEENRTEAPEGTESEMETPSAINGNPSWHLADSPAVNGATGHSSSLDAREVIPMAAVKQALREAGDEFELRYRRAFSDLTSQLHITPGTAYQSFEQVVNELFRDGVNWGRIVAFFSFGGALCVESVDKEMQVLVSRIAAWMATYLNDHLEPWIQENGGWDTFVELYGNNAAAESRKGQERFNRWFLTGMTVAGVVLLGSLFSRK

Row | SMILES | IC50 [1] | Dmax [2] | DC50 [2] | Dmax [3] | DC50 [3]
1 | C#Cc1ccc([C@H](CO)NC(=O)[C@@H]2C[C@@H](O)CN2C(=O)[C@@H](NC(=O)CCc2ccc(S(=O)(=O)NC(=O)c3nc(N4CCc5cccc(C(=O)Nc6nc7ccccc7s6)c5C4)ccc3-c3cnn(CC4CCCCC4)c3C)cc2)C(C)(C)C)cc1 [I-194] | < 100 nM | > 75% | < 10 nM | > 75% | 10 to 100 nM
2 | Cc1cc([C@H](C(=O)N2C[C@H](O)C[C@H]2C(=O)NCc2ccc(-c3scnc3C)cc2OCCCCCCNC(=O)c2nc(N3CCc4cccc(C(=O)Nc5nc6ccccc6s5)c4C3)ccc2-c2cnn(CC3CCCCC3)c2C)C(C)C)on1 [I-197] | 100 to 1000 nM | > 75% | 10 to 100 nM | < 50% | > 1000 nM
3 | Cc1ncsc1-c1ccc([C@H](C)NC(=O)[C@@H]2C[C@@H](O)CN2C(=O)[C@@H](NC(=O)CCCCCCCCC(=O)N2CCN(CC#Cc3ccc(OCCCc4sc(N5CCc6cccc(C(=O)Nc7nc8ccccc8s7)c6C5)nc4C(=O)O)c(F)c3)CC2)C(C)(C)C)cc1 [I-204] | 100 to 1000 nM | > 75% | < 10 nM | > 75% | 10 to 100 nM
4 | Cc1ncsc1-c1ccc([C@H](C)NC(=O)[C@@H]2C[C@@H](O)CN2C(=O)[C@@H](NC(=O)COCCN2CCC(S(=O)(=O)NC(=O)c3nc(N4CCc5cccc(C(=O)Nc6nc7ccccc7s6)c5C4)ccc3-c3cnn(CC4CCCCC4)c3C)CC2)C(C)(C)C)cc1 [I-206] | 100 to 1000 nM | > 75% | < 10 nM | 50 to 75% | 10 to 100 nM
5 | Cc1ncsc1-c1ccc(CNC(=O)[C@@H]2C[C@@H](O)CN2C(=O)[C@@H](NC(=O)C2(F)CC2)C(C)(C)C)c(OCCN2CC3(C2)CN(C(=O)c2nc(N4CCc5cccc(C(=O)Nc6nc7ccccc7s6)c5C4)ccc2-c2cnn(CC4CCCCC4)c2C)C3)c1 [I-207] | 100 to 1000 nM | 50 to 75% | 100 to 500 nM | < 50% | > 1000 nM
6 | Cc1ncsc1-c1ccc(CNC(=O)[C@@H]2C[C@@H](O)CN2C(=O)[C@@H](NC(=O)C2(F)CC2)C(C)(C)C)c(OCCC2CN(CC[C@H](CSc3ccccc3)Nc3ccc(S(=O)(=O)NC(=O)c4ccc(N5CCN(CC6=C(c7ccc(Cl)cc7)CCC(C)(C)C6)CC5)cc4)cc3S(=O)(=O)C(F)(F)F)C2)c1 [I-208] | 100 to 1000 nM | 50 to 75% | 500 to 1000 nM | < 50% | > 1000 nM
7 | Cc1ncsc1-c1ccc([C@H](C)NC(=O)[C@@H]2C[C@@H](O)CN2C(=O)[C@@H](NC(=O)CCC2CCC(S(=O)(=O)NC(=O)c3nc(N4CCc5cccc(C(=O)Nc6nc7ccccc7s6)c5C4)ccc3-c3cnn(CC4CCCCC4)c3C)CC2)C(C)(C)C)cc1 (some centres unmarked) [I-209] | < 100 nM | > 75% | 10 to 100 nM | 50 to 75% | 100 to 500 nM
8 | Cc1ncsc1-c1ccc([C@H](C)NC(=O)[C@@H]2C[C@@H](O)CN2C(=O)[C@@H](NC(=O)N2CC(c3ccc(S(=O)(=O)NC(=O)c4nc(N5CCc6cccc(C(=O)Nc7nc8ccccc8s7)c6C5)ccc4-c4cnn(CC5CCCCC5)c4C)cc3)C2)C(C)(C)C)cc1 [I-210] | 100 to 1000 nM | > 75% | 100 to 500 nM | 50 to 75% | 100 to 500 nM
9 | Cc1ncsc1-c1ccc([C@H](C)NC(=O)[C@@H]2C[C@@H](O)CN2C(=O)[C@@H](NC(=O)N2CC(N3CCC(S(=O)(=O)NC(=O)c4nc(N5CCc6cccc(C(=O)Nc7nc8ccccc8s7)c6C5)ccc4-c4cnn(CC5CCCCC5)c4C)CC3)C2)C(C)(C)C)cc1 [I-212] | 100 to 1000 nM | > 75% | < 10 nM | 50 to 75% | 100 to 500 nM
10 | Cc1ncsc1-c1ccc([C@H](C)NC(=O)[C@@H]2C[C@@H](O)CN2C(=O)[C@@H](NC(=O)CCCCCCC(=O)N2CCN(C[C@@]3(C)CCC(c4ccc(Cl)cc4)=C(CN4CCN(c5ccc(C(=O)NS(=O)(=O)c6ccc(N[C@H](CCN7CCOCC7)CSc7ccccc7)c(S(=O)(=O)C(F)(F)F)c6)cc5)CC4)C3)CC2)C(C)(C)C)cc1 [I-396] | 100 to 1000 nM | > 75% | < 10 nM | 50 to 75% | 500 to 1000 nM
11 | Cc1ncsc1-c1ccc([C@H](C)NC(=O)[C@@H]2C[C@@H](O)CN2C(=O)[C@@H](NC(=O)CCCCCCC(=O)N2CCN(CC3(C)CCC(c4ccc(Cl)cc4)=C(CN4CCN(c5ccc(C(=O)NS(=O)(=O)c6ccc(NCC78CC9CC(CC(O)(C9)C7)C8)c(S(=O)(=O)C(F)(F)F)c6)cc5)CC4)C3)CC2)C(C)(C)C)cc1 (some centres unmarked) [I-398] | > 3000 nM | < 50% | > 1000 nM | – | –
